Source: PMC10913484, “Hydroxyhexylitaconic acids as potent IMP-type metallo-β-lactamase inhibitors for controlling carbapenem resistance in Enterobacterales” (Microbiology Spectrum, 2024)
Converted amounts (≈) assume the structure as drawn. Read-outs that look alike come from different tables or passages of the source.

Columns and labels:
Type in all cases: cell-based
[1] = tested on: E. cloacae NUBL-5 (IMP-1); test: Susceptibility test, clinical isolate; conditions: Enterobacter cloacae
Description: (§1) Susceptibility testing, based on the microdilution method, was performed according to the guidelines of the Clinical and Laboratory Standards Institute ([36]).

[2] = tested on: E. coli NUBL-24 (IMP-1); test: Susceptibility test, clinical isolate; conditions: Escherichia coli
Description: as §1

[3] = tested on: K. pneumoniae AR0076 (VIM-1); test: Susceptibility test, clinical isolate; conditions: Klebsiella pneumoniae
Description: as §1

[4] = tested on: K. pneumoniae NUBL-23 (IMP-6); test: Susceptibility test, clinical isolate; conditions: Klebsiella pneumoniae
Description: as §1

[5] = tested on: P. penneri E11-M475 (IMP-1); test: Susceptibility test, clinical isolate; conditions: Proteus penneri
Description: as §1

[6] = tested on: IMP-1-producing E. coli NUBL-24; test: Time-killing assay; conditions: 12-h incubation; for Time-kill: effect on growth, HHIA alone: 50 µg/mL alone; for Time-kill: MPM-HHIA combination: MPM 1 µg/mL + HHIA 50 µg/mL
Description: The initial density of IMP-1-producing E. coli NUBL-24 (MPM MIC, 8 µg/mL) was adjusted to approximately 5 × 10^6 colony-forming units (cfu)/mL. Either MPM (1 µg/mL) or 9-HHIA/10-HHIA (50 µg/mL) alone or a combination of the two was added to the bacterial solution, and then incubation was performed at 37°C. LB broth containing bacteria alone was used as a control. At 0, 2, 4, 8, and 12 h after adding the agents, an aliquot of the bacterial culture was removed, diluted, and spotted on LB agar plates to count the viable bacterial cells. The detection limit was set at 333 cfu/mL.

[7] = +HHIA 6.25 µg/mL, read-out: IPM MIC
[8] = +HHIA 6.25 μg/mL, read-out: MPM MIC
[9] = +HHIA 25 µg/mL, read-out: IPM MIC
[10] = +HHIA 25 μg/mL, read-out: MPM MIC
[11] = +HHIA 100 µg/mL, read-out: IPM MIC
[12] = +HHIA 100 μg/mL, read-out: MPM MIC
[13] = +HHIA 6.25 µg/mL, E. coli NUBL-24 (IMP-1), read-out: IPM MIC
[14] = +HHIA 6.25 μg/mL, E. coli NUBL-24 (IMP-1), read-out: MPM MIC
[15] = +HHIA 25 µg/mL, E. coli NUBL-24 (IMP-1), read-out: IPM MIC
[16] = +HHIA 25 μg/mL, E. coli NUBL-24 (IMP-1), read-out: MPM MIC
[17] = +HHIA 100 µg/mL, E. coli NUBL-24 (IMP-1), read-out: IPM MIC

SMILES	MIC [1, 7] [µg/mL]	MIC [1, 8] [µg/mL]	MIC [1, 9] [µg/mL]	MIC [1, 10] [µg/mL]	MIC [1, 11] [µg/mL]	MIC [1, 12] [µg/mL]	MIC [2, 13] [µg/mL]	MIC [2, 14] [µg/mL]	MIC [2, 15] [µg/mL]	MIC [2, 16] [µg/mL]	MIC [2, 17] [µg/mL]	MIC ([2]; read-out: MPM MIC) [µg/mL]	MIC [3, 7] [µg/mL]	MIC [3, 8] [µg/mL]	MIC [3, 9] [µg/mL]	MIC [3, 10] [µg/mL]	MIC [3, 11] [µg/mL]	MIC [3, 12] [µg/mL]	MIC [4, 7] [µg/mL]	MIC [4, 8] [µg/mL]	further results
C=C(C(=O)O)C(CCCCC(C)O)C(=O)O (stereo not shown) [9-HHIA, 9-hydroxyhexylitaconic acid]	8 (≈ 34.7 µM)	16 (≈ 69.5 µM)	4 (≈ 17.4 µM)	16 (≈ 69.5 µM)	2 (≈ 8.69 µM)	8 (≈ 34.7 µM)	4 (≈ 17.4 µM)	4 (≈ 17.4 µM)	2 (≈ 8.69 µM)	0.5 (≈ 2.17 µM)	1 (≈ 4.34 µM)	0.125 (≈ 0.543 µM)	32 (≈ 139 µM)	32 (≈ 139 µM)	32 (≈ 139 µM)	32 (≈ 139 µM)	32 (≈ 139 µM)	32 (≈ 139 µM)	0.5 (≈ 2.17 µM)	32 (≈ 139 µM)	MIC [4, 9]: 0.5 µg/mL (≈ 2.17 µM); MIC [4, 10]: 16 µg/mL (≈ 69.5 µM); MIC [4, 11]: 0.5 µg/mL (≈ 2.17 µM); MIC [4, 12]: 0.5 µg/mL (≈ 2.17 µM); MIC [5, 7]: > 64 µg/mL; MIC [5, 8]: > 64 µg/mL; MIC [5, 9]: > 64 µg/mL; MIC [5, 10]: > 64 µg/mL; MIC [5, 11]: > 64 µg/mL; MIC [5, 12]: 32 µg/mL (≈ 139 µM); Time-kill: effect on growth, HHIA alone [6]: did not affect the growth; Time-kill: MPM-HHIA combination [6]: did not permit the re-growth
C=C(C(=O)O)C(CCCCCCO)C(=O)O (stereo not shown) [10-HHIA, 10-hydroxyhexylitaconic acid]	8 (≈ 34.7 µM)	16 (≈ 69.5 µM)	4 (≈ 17.4 µM)	16 (≈ 69.5 µM)	1 (≈ 4.34 µM)	8 (≈ 34.7 µM)	4 (≈ 17.4 µM)	4 (≈ 17.4 µM)	1 (≈ 4.34 µM)	0.5 (≈ 2.17 µM)	1 (≈ 4.34 µM)	0.125 (≈ 0.543 µM)	32 (≈ 139 µM)	32 (≈ 139 µM)	32 (≈ 139 µM)	32 (≈ 139 µM)	16 (≈ 69.5 µM)	32 (≈ 139 µM)	0.5 (≈ 2.17 µM)	32 (≈ 139 µM)	MIC [4, 9]: 0.25 µg/mL (≈ 1.09 µM); MIC [4, 10]: 2 µg/mL (≈ 8.69 µM); MIC [4, 11]: 0.5 µg/mL (≈ 2.17 µM); MIC [4, 12]: 0.25 µg/mL (≈ 1.09 µM); MIC [5, 7]: > 64 µg/mL; MIC [5, 8]: > 64 µg/mL; MIC [5, 9]: > 64 µg/mL; MIC [5, 10]: > 64 µg/mL; MIC [5, 11]: 64 µg/mL (≈ 278 µM); MIC [5, 12]: 16 µg/mL (≈ 69.5 µM); Time-kill: effect on growth, HHIA alone [6]: did not affect the growth; Time-kill: MPM-HHIA combination [6]: did not permit the re-growth
